Legend:
Format in all cases: cell-based
LNCaP cells [1] = experiment: Anti-proliferative activity on LNCaP in complete medium (WST-1); conditions: Homo sapiens, 144 h, 144 h incubation, read-out: IC50 on the LNCaP cells in culture (concentration inhibiting cell proliferation by 50%)
Procedure: The anti-proliferative activity of the compounds of the present invention is determined on LNCaP in complete medium by applying the following experimental procedure:
The LNCaP cell type (ATCC, 1740) originating from a prostate carcinoma expressing the androgen receptor, this line is hormone-dependent.
Maintenance of the LNCaP line is carried out in complete culture medium: RPMI, 10% of foetal calf serum, 2 mM glutamine, 100 U/ml penicillin, 0.1 mg/ml of streptomycin and 0.01M HEPES, 1 mM sodium pyruvate, 40% of D-glucose. • Seeding the plates:
The LNCaP line is seeded at 20,000 cells/well in 90 μl of complete medium in 96-well plates coated with poly-D-lysine (Biocoat, Costar). • Treatment of the cells: 24 h after the seeding, the cells are treated with 10 μl/well of compound diluted in the culture medium. Experiments of the effect of doses of the compound are carried out on a scale of 1 nM to 100 µM. The concentrations used are the following: 1 nM/10/30/100/300/1000/3000/10,000/100,000 nM. Testosterone (SIGMA T1500) is used as a reference and tested at the same concentrations. The cells are incubated for 144 h at 37° C., 5% CO2. • Reading: On D6, 10 μL of the “WST-1 cell proliferation” reagent (Roche ref 1644807) is added to each well. After incubation for 2 hours at 37° C., 5% CO2, the absorbance at 450 nm is measured by spectrophotometry (Envision, Perkin Elmer). • Results: The experiments are carried out in duplicate and the best compounds are tested twice. […] 2. Antiproliferative Activity on LNCaP in Medium without Steroids: […]

DU145 cells = experiment: Antiproliferative activity on DU-145 in complete medium (WST-1); conditions: Homo sapiens, 144 h incubation, read-out: IC50 on the DU145 cells in culture (concentration inhibiting cell proliferation by 50%)
Procedure: The anti-proliferative activity of the compounds of the present invention is determined on DU-145 in complete medium.
Maintenance of the DU-145 line is carried out in DMEM, 10% of foetal calf serum, 2 mM of glutamine, 100 U/ml of penicillin, 0.1 mg/ml of streptomycin. • Seeding the plates: • The DU145 line is seeded at 400 or 800 cells/well in 90 μl of DMEM complete medium in 96-well plates (TPP). • Treatment of the cells: 24 h after the seeding, the cells are treated with 10 μl/well of compound diluted in the culture medium. Experiments showing the dose-effect of the compound are carried out on a scale of 1 nM to 100 μM. The concentrations used are the following: 1 nM/10/30/100/300/1000/3000/10,000/100,000 nM. The cells are incubated for 144 h at 37° C., 5% CO2. • Reading: On D6, 10 μL, of cell proliferation reagent WST-1 (Roche ref 1644807) is added to each well. After incubation for 2 to 4 hours at 37° C., 5% CO2, the absorbance at 450 nm is measured by spectrophotometry (Envision, Perkin Elmer). • Results: The experiments are carried out in duplicate and the best compounds are tested twice. […] 4. Measurement of the Disappearance of the Androgen Receptor

LNCaP cells [2] = experiment: Antiproliferative activity on LNCaP in medium without steroids (WST-1); conditions: 144 h, 1 nM to 100 μM
Procedure: The anti-proliferative activity of the compounds of the present invention is determined on LNCaP in medium without steroids.
The maintenance of the LNCaP line is carried out under the usual conditions in RPMI, 10% of foetal calf serum, 2 mM of glutamine, 100 U/ml of penicillin, 0.1 mg/ml of streptomycin and 0.01M HEPES, 1 mM sodium pyruvate, 40% of D-glucose.
For the study under conditions without steroids, 24 hours before the seeding the culture medium of the cells is eliminated. The cells are washed with PBS, then incubated in the presence of RPMI medium without phenol red, 10% of foetal calf serum without steroids (treatment with carbon), 2 mM of glutamine, 100 U/ml of penicillin, 0.1 mg/ml of streptomycin and 0.01M HEPES, 1 mM of sodium pyruvate, 40% of D-glucose. • Seeding the plates:
The LNCaP line is seeded at 20,000 cells/well in 90 μl of RPMI medium with 10% foetal calf serum without steroids in 96-well plates coated with poly-D-lysine (Biocoat, Costar). • Treatment of the cells: 24 h after seeding, the cells are treated with 10 μl/well of compound diluted in the culture medium. Experiments showing the dose-effect of the compound are carried out on a scale of 1 nM to 100 μM. The concentrations used are the following: 1 nM/10/30/100/300/1000/3000/10,000/100,000 nM. Testosterone (SIGMA T1500) is used as a reference and tested at the same concentrations. The cells are incubated for 144 h at 37° C., 5% CO2. • Reading: On D6, 10 μL of cell proliferation reagent WST-1 (Roche ref 1644807) is added to each well. After incubation for 2 to 4 hours at 37° C., 5% CO2, the absorbance at 450 nm is measured by spectrophotometry (Envision, Perkin Elmer). • Results: The experiments are carried out in duplicate and the best compounds are tested twice. […] 3. Antiproliferative Activity on DU-145 in Complete Medium: […]

SMILES | IC50 (LNCaP cells [1]) [µM] | IC50 (DU145 cells) [µM] | effect on the cell proliferation of LNCaP cultured in medium without steroids (FIG. 1) (LNCaP cells [2])
Cc1cc(N2C(=O)N(CCCCCCCCC[S+]([O-])CCCC(F)(F)C(F)(F)F)C(C)(C)C2=O)ccc1[N+](=O)[O-] (stereo not shown) [Example 24, 5,5-dimethyl-3-(3-methyl-4-nitrophenyl)-1-{9-[(4,4,5,5,5-pentafluoropentyl)sulphinyl]nonyl}imidazolidine-2,4-dione] | < 2 | > 10 | 
CCC(C)NC(=O)Nc1ccc(N2C(=O)N(CCCCCCCCC[S+]([O-])CCCC(F)(F)C(F)(F)F)C(C)(C)C2=O)cc1C (stereo not shown) [Example 28, 1-[4-(4,4-dimethyl-2,5-dioxo-3-{9-[(4,4,5,5,5-pentafluoropentyl)sulphinyl]nonyl}imidazolidin-1-yl)-2-methylphenyl]-3-(1-methylpropyl)urea] | < 2 | > 10 | 
Cc1cc(N2C(=O)N(CCCCCCCCCSCCCC(F)(F)C(F)(F)F)C(C)(C)C2=O)ccc1NS(N)(=O)=O [Example 30, N-[4-(4,4-dimethyl-2,5-dioxo-3-{9-[(4,4,5,5,5-pentafluoropentyl)sulphanyl]nonyl}imidazolidin-1-yl)-2-methylphenyl]sulphamide] | < 2 | > 10 | 
Cc1cc(N2C(=O)N(CCCCCCCCC[S+]([O-])CCCC(F)(F)C(F)(F)F)C(C)(C)C2=O)ccc1NS(N)(=O)=O (stereo not shown) [Example 31, N-[4-(4,4-dimethyl-2,5-dioxo-3-{9-[(4,4,5,5,5-pentafluoropentyl)sulphinyl]nonyl}imidazolidin-1-yl)-2-methylphenyl]sulphamide] | < 2 | > 10 | 
Cc1cc(N2C(=O)N(CCCCCCCCCS(=O)(=O)CCCC(F)(F)C(F)(F)F)C(C)(C)C2=O)ccc1NS(N)(=O)=O [Example 32, N-[4-(4,4-dimethyl-2,5-dioxo-3-{9-[(4,4,5,5,5-pentafluoropentyl)sulphonyl]nonyl}imidazolidin-1-yl)-2-methylphenyl]sulphamide] | < 2 | > 10 | 
O=C1N(c2ccc([N+](=O)[O-])c(C(F)(F)F)c2)C(=O)C2(CCC2)N1CCCCCCCCC[S+]([O-])CCCC(F)(F)C(F)(F)F (stereo not shown) [Example 34, 7-[4-nitro-3-(trifluoromethyl)phenyl]-5-{9-[(4,4,5,5,5-pentafluoropentyl)sulphinyl]nonyl}-5,7-diazaspiro[3.4]octane-6,8-dione] | < 2 | > 10 | 
CC1(C)C(=O)N(c2ccc([N+](=O)[O-])c(C(F)(F)F)c2)C(=O)N1CCOCCOCC[S+]([O-])CCCC(F)(F)C(F)(F)F (stereo not shown) [Example 37, 5,5-dimethyl-3-[4-nitro-3-(trifluoromethyl)phenyl]-1-[2-(2-{2-[(4,4,5,5,5-pentafluoropentyl)sulphinyl]ethoxy}ethoxy)ethyl]imidazolidine-2,4-dione] | < 2 | > 10 | 
CC(=O)N(C)c1ccc(N2C(=O)N(CCCCCCCCC[S+]([O-])CCCC(F)(F)C(F)(F)F)C(C)(C)C2=O)cc1C(F)(F)F (stereo not shown) [Example 40, N-[4-(4,4-dimethyl-2,5-dioxo-3-{9-[(4,4,5,5,5-pentafluoropentyl)sulphinyl]nonyl}imidazolidin-1-yl)-2-(trifluoromethyl)phenyl]-N-methylacetamide] | < 2 | > 10 | 
CN(C)CC(=O)Nc1ccc(N2C(=O)N(CCCCCCCCCSCCCC(F)(F)C(F)(F)F)C(C)(C)C2=O)cc1C(F)(F)F [Example 42, N-[4-(4,4-dimethyl-2,5-dioxo-3-{9-[(4,4,5,5,5-pentafluoropentyl)sulphanyl]nonyl}imidazolidin-1-yl)-2-(trifluoromethyl)phenyl]-N^2,N^2-dimethylglycinamide] | < 2 | > 10 | 
CC1(C)NC(=O)N(c2ccc([N+](=O)[O-])c(C(F)(F)F)c2)C1=O [nilutamide, reference compound] |  |  | biphasic profile with an agonist activity at low concentration followed by an inhibitory activity at high concentration

From patent US8710091B2, “Imidazolidine-2,4-dione derivatives, and use thereof as a cancer drug” (Ipsen Pharma S.A.S., priority 2009, dated 2014)
